Experimental findings from patent publication US8609690B2, “Aryl- and heteroarylcarbonyl derivatives of substituted nortropanes, medicaments containing such compounds and their use” (Boehringer Ingelheim International GmbH, priority 2008, dated 2013) are described below.

For the experiment, the target named is T1, 11β-HSD 1 (Homo sapiens, UniProt P28845).
T1 construct: detecting cortisol generated from cortisterone by human liver microsomes; from tissue; host or cells: human liver microsomes
Briefly: In vitro inhibition of 11β-HSD 1, HTRF detection of cortisol generated by human liver microsomes. It is filed as biochemical. Conditions: 1 μM test compound, 100% indicates no inhibition, zero or below zero indicates complete inhibition (relative to carbenoxolone). As to the method: Briefly, compounds were incubated for 1 hour at 37° C. in Tris buffer (20 mM tris, 5 mM EDTA, pH 6.0) containing NADPH (200 μM) and cortisone (80 nM). Cortisol generated in the reaction is then detected with a competitive immunoassay, involving two HTRF conjugates: cortisol linked to XL665 and anti-cortisol antibody labeled with Europium cryptate. The incubation period for detection reaction was typically 2 hours. The amount of cortisol is determined by reading the time-resolved fluorescence of the wells (Ex 320/75 nm; Em 615/8.5 nm and 665/7.5 nm). The ratio of the two emission signals is then calculated (Em665*10000/Em615). […] Each assay also contained a calibration curve with cortisol to transform the fluorescent data into cortisol concentrations. Percent inhibition of each compound was determined relative to the carbenoxolone signal. In Table 2 the 11β-HSD 1 inhibitory activities at 1 μM concentration of test compound, determined as described above, of the compounds listed in Table 3 are compiled, wherein 100% indicates no inhibition and a value of zero or below zero indicates complete inhibition.
Background: In TR-FRET formats the signal depends on donor and acceptor labels being close together.

T1 sequence (P28845 whole entry): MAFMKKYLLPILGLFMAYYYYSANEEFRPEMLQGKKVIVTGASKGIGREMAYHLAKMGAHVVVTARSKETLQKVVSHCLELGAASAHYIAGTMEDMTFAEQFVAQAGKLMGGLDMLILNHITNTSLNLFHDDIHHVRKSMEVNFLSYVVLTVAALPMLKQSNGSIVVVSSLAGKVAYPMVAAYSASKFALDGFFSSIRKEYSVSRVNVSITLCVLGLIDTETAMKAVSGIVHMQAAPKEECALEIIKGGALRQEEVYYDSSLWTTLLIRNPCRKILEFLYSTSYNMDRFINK

`CC(C)CN1Cc2cccc(C(=O)N3[C@@H]4CC[C@H]3C[C@@H](c3ccc(F)cc3)C4)c2C1=O` [Example 29, endo-7-[3-(4-Fluoro-phenyl)-8-aza-bicyclo[3.2.1]octane-8-carbonyl]-2-isobutyl-2,3-dihydro-isoindol-1-one]: the “Inhibitory activity on 11β-HSD 1, % CTL” value is reported as 97 % CTL.
Under `O=C(c1ccc2cc[nH]c2c1)N1[C@@H]2CC[C@H]1C[C@@H](c1ccc(F)cc1)C2` [Example 62, endo-[3-(4-Fluoro-phenyl)-8-aza-bicyclo[3.2.1]oct-8-yl]-(1H-indol-6-yl)-methanone] stands −47 % CTL.
With `O=C(c1cccc(-c2cnco2)c1)N1[C@@H]2CC[C@H]1C[C@@H](c1ccc(F)cc1)C2` [Example 91, endo-[3-(4-Fluoro-phenyl)-8-aza-bicyclo[3.2.1]oct-8-yl]-(3-oxazol-5-yl-phenyl)-methanone] the figure was 69 % CTL; with `COc1ccccc1C(=O)N1[C@@H]2CC[C@H]1C[C@@H](c1ccc(F)cc1)C2` [Example 110, endo-[3-(4-Fluoro-phenyl)-8-aza-bicyclo[3.2.1]oct-8-yl]-(2-methoxy-phenyl)-methanone], 87 % CTL.
With `CC(=O)Cc1ccc(C(=O)N2[C@@H]3CC[C@H]2C[C@@H](c2ccc(F)cc2)C3)cc1` [Example 58, endo-1-{4-[3-(4-Fluoro-phenyl)-8-aza-bicyclo[3.2.1]octane-8-carbonyl]-phenyl}-propan-2-one] the figure was 68 % CTL; with `O=C(c1cccs1)N1[C@@H]2CC[C@H]1C[C@@H](c1ccc(F)cc1)C2` [Example 7, endo-[3-(4-Fluoro-phenyl)-8-aza-bicyclo[3.2.1]oct-8-yl]-thiophen-2-yl-methanone], 68 % CTL; with `Cn1cnc2cc(C(=O)N3[C@@H]4CC[C@H]3C[C@@H](c3ccc(F)cc3)C4)ccc21` [Example 66, endo-[3-(4-Fluoro-phenyl)-8-aza-bicyclo[3.2.1]oct-8-yl]-(1-methyl-1H-benzoimidazol-5-yl)-methanone], 77 % CTL.
Turning to `O=C(c1ccc2c(c1)OCCO2)N1[C@@H]2CC[C@H]1C[C@@H](c1ccc(Br)cc1)C2` [Example 155, endo-[3-(4-Bromo-phenyl)-8-aza-icyclo[3.2.1]oct-8-yl]-(2,3-dihydro-benzo[1,4]dioxin-6-yl)-methanone], the “Inhibitory activity on 11β-HSD 1, % CTL” value was −17 % CTL.
Under `O=C(c1ccc(F)c(F)c1)N1[C@@H]2CC[C@H]1C[C@@H](c1ccc(F)cc1)C2` [Example 77, endo-(3,4-Difluoro-phenyl)-[3-(4-fluoro-phenyl)-8-aza-bicyclo[3.2.1]oct-8-yl]methanone] stands 47 % CTL; under `Nc1c(Cl)cc(C(=O)N2[C@@H]3CC[C@H]2C[C@@H](c2ccc(F)cc2)C3)cc1Cl` [Example 178, endo-(4-Amino-3,5-dichloro-phenyl)-[3-(4-fluoro-phenyl)-8-aza-bicyclo[3.2.1]oct-8-yl]-methanone], −22 % CTL; under `COc1cc(C(=O)N2[C@@H]3CC[C@H]2C[C@@H](c2ccc(F)cc2)C3)ccc1O` [Example 171, endo-[3-(4-Fluoro-phenyl)-8-aza-bicyclo[3.2.1]oct-8-yl]-(4-hydroxy-3-methoxy-phenyl)-methanone], −26 % CTL.
With `Cc1ccc(C(=O)N2[C@@H]3CC[C@H]2C[C@@H](c2ccc(F)cc2)C3)cc1C` [Example 107, endo-(3,4-Dimethyl-phenyl)-[3-(4-fluoro-phenyl)-8-aza-bicyclo[3.2.1]oct-8-yl]-methanone] the figure was −38 % CTL; with `Nc1nc2cc(C(=O)N3[C@@H]4CC[C@H]3C[C@@H](c3ccc(F)cc3)C4)ccc2[nH]1` [Example 48, endo-(2-Amino-1H-benzoimidazol-5-yl)-[3-(4-fluoro-phenyl)-8-aza-bicyclo[3.2.1]oct-8-yl]-methanone], 1 % CTL.
As to `Cc1cccc(C(=O)N2[C@@H]3CC[C@H]2C[C@@H](c2ccc(F)cc2)C3)c1` [Example 99, endo-[3-(4-Fluoro-phenyl)-8-aza-bicyclo[3.2.1]oct-8-yl]-m-tolyl-methanone], the “Inhibitory activity on 11β-HSD 1, % CTL” value is listed as −39 % CTL.
Under `Cc1cc(C(F)F)n2ncc(C(=O)N3[C@@H]4CC[C@H]3C[C@@H](c3ccc(F)cc3)C4)c2n1` [Example 4, endo-(7-Difluoromethyl-5-methyl-pyrazolo[1,5-a]pyrimidin-3-yl)-[3-(4-fluoro-phenyl)-8-aza-bicyclo[3.2.1]oct-8-yl]-methanone] stands 87 % CTL; under `NC(=O)c1cccc(C(=O)N2[C@@H]3CC[C@H]2C[C@@H](c2ccc(F)cc2)C3)c1` [Example 84, endo-3-[3-(4-Fluoro-phenyl)-8-aza-bicyclo[3.2.1]octane-8-carbonyl]-benzamide], 41 % CTL.
Turning to `Cc1cc(C(F)(F)F)n2nc(C(=O)N3[C@@H]4CC[C@H]3C[C@@H](c3ccc(F)cc3)C4)cc2n1` [Example 42, endo-[3-(4-Fluoro-phenyl)-8-aza-bicyclo[3.2.1]oct-8-yl]-(5-methyl-7-trifluoromethyl-pyrazolo[1,5-a]pyrimidin-2-yl)-methanone], the “Inhibitory activity on 11β-HSD 1, % CTL” value is on record as 93 % CTL.
With `O=C(c1n[nH]c2c1CCC2)N1[C@@H]2CC[C@H]1C[C@@H](c1ccc(F)cc1)C2` [Example 6, endo-[3-(4-Fluoro-phenyl)-8-aza-bicyclo[3.2.1]oct-8-yl]-(1,4,5,6-tetrahydro-cyclopentapyrazol-3-yl)-methanone] the figure was 88 % CTL.
With `COc1ccc(C(=O)N2[C@@H]3CC[C@H]2C[C@@H](c2ccc(F)cc2)C3)cc1Cl` [Example 165, endo-(3-Chloro-4-methoxy-phenyl)-[3-(4-fluoro-phenyl)-8-aza-bicyclo[3.2.1]oct-8-yl]-methanone] the figure was 2 % CTL; with “endo-[3-(3,4-Difluoro-phenyl)-8-aza-bicyclo[3.2.1]oct-8-yl]-(2,3-dihydro-benzo[1,4]dioxin-6-yl)-methanone [Example 137]”, 16 % CTL.
For the molecule `COC(=O)c1ccc(C(=O)N2[C@@H]3CC[C@H]2C[C@@H](c2ccc(C)cc2)C3)s1` [Example 9, endo-5-(3-p-Tolyl-8-aza-bicyclo[3.2.1]octane-8-carbonyl)-thiophene-2-carboxylic acid methyl ester], the “Inhibitory activity on 11β-HSD 1, % CTL” value was 87 % CTL.
Under `NCc1ccc(C2CC3CCC(C2)N3C(=O)c2ccc3c(c2)OCCO3)cc1` (stereo not shown) [Example 146, [3-(4-Aminomethyl-phenyl)-8-aza-bicyclo[3.2.1]oct-8-yl]-(2,3-dihydro-benzo[1,4]dioxin-6-yl)-methanone] stands 96 % CTL.
Under `O=C(c1ccc2[nH]ncc2c1)N1[C@@H]2CC[C@H]1C[C@@H](c1ccc(F)cc1)C2` [Example 180, endo-[3-(4-Fluoro-phenyl)-8-aza-bicyclo[3.2.1]oct-8-yl]-(1H-indazol-5-yl)-methanone] stands −41 % CTL.
Under `COC(=O)c1ccc([C@H]2C[C@H]3CC[C@@H](C2)N3C(=O)c2ccc3c(c2)OCCO3)cc1` [Example 154] stands 59 % CTL; under `Cc1ccc([C@H]2C[C@H]3CC[C@@H](C2)N3C(=O)c2cscn2)cc1` [Example 13, endo-Thiazol-4-yl-(3-p-tolyl-8-aza-bicyclo[3.2.1]oct-8-yl)-methanone], 62 % CTL; under `O=C1NCCN1c1cccc(C(=O)N2[C@@H]3CC[C@H]2C[C@@H](c2ccc(F)cc2)C3)c1` [Example 60, endo-1-{3-[3-(4-Fluoro-phenyl)-8-aza-bicyclo[3.2.1]octane-8-carbonyl]-phenyl}-imidazolidin-2-one], 63 % CTL.
For `O=C(c1ccc2c(c1)OCCO2)N1[C@@H]2CC[C@H]1C[C@@H](c1c(F)cccc1F)C2` [Example 161, endo-[3-(2,6-Difluoro-phenyl)-8-aza-bicyclo[3.2.1]oct-8-yl]-(2,3-dihydro-benzo[1,4]dioxin-6-yl)-methanone], the “Inhibitory activity on 11β-HSD 1, % CTL” value was −30 % CTL.
With `Cn1nnc2cc(C(=O)N3[C@@H]4CC[C@H]3C[C@@H](c3ccc(F)cc3)C4)ccc21` [Example 68, endo-[3-(4-Fluoro-phenyl)-8-aza-bicyclo[3.2.1]oct-8-yl]-(1-methyl-1H-benzotriazol-5-yl)-methanone] the figure was 66 % CTL.
Regarding `O=C1CCCN1c1ccc(C(=O)N2[C@@H]3CC[C@H]2C[C@@H](c2ccc(F)cc2)C3)cc1` [Example 65, endo-1-{4-[3-(4-Fluoro-phenyl)-8-aza-bicyclo[3.2.1]octane-8-carbonyl]-phenyl}-pyrrolidin-2-one], the “Inhibitory activity on 11β-HSD 1, % CTL” value worked out at 33 % CTL.
With `NC(=O)c1ccc(C(=O)N2[C@@H]3CC[C@H]2C[C@@H](c2ccc(F)cc2)C3)c(F)c1` [Example 36, endo-3-Fluoro-4-[3-(4-fluoro-phenyl)-8-aza-bicyclo[3.2.1]octane-8-carbonyl]-benzamide] the figure was −28 % CTL.
With `CC(=O)Nc1ccc(C(=O)N2[C@@H]3CC[C@H]2C[C@@H](c2ccc(F)cc2)C3)cc1` [Example 115, endo-N-{4-[3-(4-Fluoro-phenyl)-8-aza-bicyclo[3.2.1]octane-8-carbonyl]-phenyl}-acetamide] the figure was 33 % CTL.
